Measured values from patent US10723998B2, “Application of ethyl p-methoxycinnamate and derivatives thereof in maintaining self-renewal and pluripotency of stem cells” (NORTHEAST NORMAL UNIVERSITY, priority 2015, dated 2020).

Key:
Oct4 protein = Oct4 protein expression by Western Blot in P19 cells; assay type: cell-based, mouse; details: 5 μg/mL, 24 h, DMSO control, FIG. 3
Protocol: The effect of ethyl p-methoxycinnamate on Oct4 protein expression was assayed using a Western Blot method. Mouse teratoma cells P19 were inoculated in a 6-well plate. After 24 h, ethyl p-methoxycinnamate with a final concentration of 5 μg/mL was added to continue to act for another 24 h, and the control group was treated with DMSO. After the cells were washed with PBS three times, the cells were scraped with a scraper, transferred to an EP tube, and centrifuged at 4000 rpm for 5 min. The supernatant was discarded. 90 μL of lysis solution (50 mM Tris-HCl pH 7.5, 150 mM NaCl, 1 mM NaF, 0.5% NP-40, 2 μg/mL Aprotinin, and 1 mM PMSF) was added to each tube of precipitate, and the EP tube was treated on ice for 30 min and vortexed once every 5 min, so that the cells were completely lysed. After centrifugation at 12000 rpm for 10 min, the supernatant was transferred to a new EP tube, 1/3 volume of 4× protein loading buffer was added, mixed well, and boiled for 10 min, and after instantaneous centrifugation, the mixture was subjected to electrophoresis or placed at −80° C. to be frozen for standby use.
A transfer membrane buffer was prepared and precooled at 4° C. A PVDF membrane was soaked in methanol for 40 s, then taken out and soaked in the transfer membrane buffer for standby use. […]

Oct4 mRNA = Oct4 mRNA expression by RT-PCR and agarose gel electrophoresis in P19 cells; assay type: cell-based, mouse; details: 5 μg/mL, 12 h, DMSO control, FIG. 2
Protocol: P19 cells were inoculated in a 6-well cell culture plate at a density of 2×10^5 cells/well. After 24 h, DMEM culture medium containing 3% serum were used for replacement. Ethyl p-methoxycinnamate was added to the experimental group to render its final concentration at 5 μg/mL, and a control group was treated with DMSO. After 12 h, the 6-well plate overgrown with monolayer cells was taken out from a cell incubator, and the cells were washed 3 times with pre-cooled PBS. 1 mL of a pre-cooled Trizol solution was added. After vigorous pipetting, the mixture was transferred to an EP tube and allowed to stand at room temperature for 5 min. Then 200 μL of chloroform was added to the mixture, vigorously mixed well for 15 s, and the mixture containing chloroform was allowed to stand at room temperature for 2 min and centrifuged at 12000 rpm at 4° C. for 15 min. An upper aqueous phase was pipetted into another EP tube, and an equal volume of pre-cooled isopropanol was added, and the mixture was inverted several times and allowed to stand at room temperature for 10 min to precipitate RNA. After centrifugation at 12000 rpm for 10 min, the supernatant was discarded, and to the precipitate was added 1 mL of 75% ethanol (prepared by 0.1% DEPC water) for washing, followed by centrifugation at 7500 rpm for 5 min (this step was repeated once). The supernatant was discarded. […]

For `CCOC(=O)C=Cc1ccc(OC)cc1` [ethyl p-methoxycinnamate], the “effect on the expression of Oct4 protein” value (Oct4 protein) was “can promote the expression of Oct4 protein” and the “effect on the expression of Oct4 mRNA” value (Oct4 mRNA) was “can significantly promote the expression of Oct4 mRNA”.
